{
  "source": "patent US20210052537A1",
  "about": "“COLITIS AMELIORATING AGENT” (ASTA PHARMACEUTICALS, CO., LTD., priority 2018, published 2021)",
  "tested_on": "DSS-induced colitis",
  "assay": "DSS-induced colitis mouse model (experimental ulcerative colitis)",
  "assay_type": "in vivo",
  "parameters": "Colon wet weight: unit not given here",
  "experimental": "In this Example, mouse models to which dextran sulfate sodium salt (DSS) is used will be described as colitis models. When DSS is administered by being mixed in drinking water of the mouse, an experimental ulcerative colitis model similar to human ulcerative colitis in terms of symptoms such as suppression of body weight increase, blood in stools, and anemia and formation of colon erosion and further lacking intestinal lesion was build (Non-Patent Literature 3). A suppression effect of Compound X on colitis in such a model as the representative colitis model was examined. For the evaluation items, recovery from diarrhea and body weight loss by colitis, and the length and weight of the colon were examined as changes in colon properties, which are widely known to occur by DSS-induced colitis.\nFor treatment, C57BL/6J, male mice were purchased from CHARLES RIVER LABORATORIES JAPAN, INC. in accordance with previous literature (Non-Patent Literature 2) and 5-week old mice with no abnormal general conditions during quarantine and acclimation period were used for the experiment. After acclimation, the animals were divided in such a way as to be 1 mouse per cage. DSS used in the experiment having a molecular weight of from 36,000 to 50,000 Da was purchased from MP Bio Japan. DSS was added to tap water in such a way as to be 3% and suspended for causing colitis. The suspension was prepared once every 3 days and freely provided to each of the mice as water supply. A solution from which DSS was removed was provided as water supply to a non-pathological control group.\nAfter group division, each of the test substances of Table 1 was suspended in a solution of 0.5% sodium carboxymethyl cellulose (hereinafter, CMC, Nacalai Tesque Inc.) in such a way as to be each treatment of Table 1 and orally administered once daily. […] These control groups, Groups 1 and 2, were orally administered, as the test substance, with the 0.5% CMC solution used as the medium.\nDrinking water after the group division was typical water for drinking.\nThe test started with 6 mice in Group No. 1 and 10 mice each in Group Nos. 2 to 6.\nBody weights were measured on the DSS administration starting day (day −5), DSS administration last day (day 0), on day 3, day 5, day 8, and day 10 of test substance administration.\nThe therapeutic effect was evaluated by observing changes in blood in stools caused by enteritis as the body weight recovery alone can be considered that the body weight increase might have been promoted simply by the growth. Mice feces were observed on the DSS administration starting day (day-5), DSS administration last day (day 0), on day 3, day 5, day 8, and day 10 of test substance administration and scored in accordance with the criteria of Table 2.\nFor evaluating the therapeutic effect of Compound X, the length and weight of the colon were measured. The mice were euthanized under anesthesia on day 10 of test substance administration and dissected to remove the colon. The removed colon was quickly measured for a length in a relaxed state. Subsequently, feces in the intestinal tract were removed and sufficiently washed with phosphate buffered saline (Wako Pure Chemical Industries, Ltd.) and measured for a wet weight.",
  "key": {"[1]": {"conditions": "DSS + 1 mg/kg/day oral, day 10, mean ± SD"}, "[2]": {"conditions": "DSS + 10 mg/kg/day oral, day 10, mean ± SD"}, "[3]": {"conditions": "DSS + 100 mg/kg/day oral, day 10, mean ± SD"}},
  "note": "Where “and” joins values, the source holds several entries; their conditions need not be identical. Equal entries are not always repeated.",
  "data": [
    {"smiles": "CC1=C(/C=C/C(C)=C/C=C/C(C)=C/C=C/C=C(C)/C=C/C=C(C)/C=C/C2=C(C)C(=O)[C@@H](OC(=O)CNC(=O)NCCCC(=O)O)CC2(C)C)C(C)(C)C[C@H](OC(=O)CNC(=O)NCCCC(=O)O)C1=O.NCCCC[C@H](N)C(=O)O.NCCCC[C@H](N)C(=O)O", "note": "[Compound X, 4-(3-{4-[18-(4(S)-[3-(3-Carboxypropyl)ureidoacetoxy]-2,6,6-trimethyl-3-oxocyclohexa-1-enyl)-3,7,12,16-tetramethyloctadeca-1(E),3(E),5(E),7(E),9(E),11(E),13(E),15(E),17(E)-nonaenyl]-3,5,5-trimethyl-2-oxocyclohex-3-enyl-1(S)-oxycarbonylmethyl}ureido)butyric acid dilysine salt]", "values": [
      {"measurement": "Blood feces score versus DSS administration group", "setting": "100 mg/kg/day oral, day 5 of test substance administration, in words", "result": "improved blood feces score"},
      {"measurement": "Body weight recovery compared with the DSS administration only", "setting": "100 mg/kg/day oral, in words", "result": "body weight recovery was even further significant"},
      {"measurement": "Body weight", "setting": "DSS + 1 mg/kg/day oral, day 0 (DSS last day), mean ± SD", "result": "20.3 ± 0.8", "unit": "g"},
      {"measurement": "Fecal scoring average value", "setting": "DSS + 1 mg/kg/day oral, day 0 (DSS last day), score 0-3, mean ± SD", "result": "1.2 ± 0.4"},
      {"measurement": "Fecal scoring average value", "setting": "DSS + 1 mg/kg/day oral, day 3, score 0-3, mean ± SD", "result": "1.7 ± 0.8"},
      {"measurement": "Body weight", "setting": "DSS + 1 mg/kg/day oral, day 3 of administration, mean ± SD", "result": "14.7 ± 1.3", "unit": "g"},
      {"measurement": "Body weight", "setting": "DSS + 1 mg/kg/day oral, day 5, mean ± SD", "result": "15.1 ± 1.5", "unit": "g"},
      {"measurement": "Fecal scoring average value", "setting": "DSS + 1 mg/kg/day oral, day 5, score 0-3, mean ± SD", "result": "1.7 ± 0.6"},
      {"measurement": "Body weight", "setting": "DSS + 1 mg/kg/day oral, day 8, mean ± SD", "result": "18.0 ± 2.4", "unit": "g"},
      {"measurement": "Fecal scoring average value", "setting": "DSS + 1 mg/kg/day oral, day 8, score 0-3, mean ± SD", "result": "0.0 ± 0.0"},
      {"measurement": "Body weight", "setting": "[1]", "result": "19.4 ± 2.2", "unit": "g"},
      {"measurement": "Colon wet weight", "setting": "[1]", "result": "269.0 ± 8.4"},
      {"measurement": "Fecal scoring average value", "setting": "DSS + 1 mg/kg/day oral, day 10, score 0-3, mean ± SD", "result": "0.0 ± 0.0"},
      {"measurement": "Colon length", "setting": "DSS + 1 mg/kg/day oral, day 10 of administration, mean ± SD, 1 mg/kg/day", "result": "6.72 cm and 6.72 ± 0.28 cm"},
      {"measurement": "Body weight", "setting": "DSS + 1 mg/kg/day oral, day −5 (DSS start, before test substance), C57BL/6J mice, mean ± SD", "result": "20.3 ± 0.9", "unit": "g"},
      {"measurement": "Fecal scoring average value", "setting": "DSS + 1 mg/kg/day oral, day −5 (before test substance), score 0-3 per Table 2, mean ± SD", "result": "0.0 ± 0.0"},
      {"measurement": "Body weight", "setting": "DSS + 10 mg/kg/day oral, day 0 (DSS last day), mean ± SD", "result": "18.9 ± 1.1", "unit": "g"},
      {"measurement": "Fecal scoring average value", "setting": "DSS + 10 mg/kg/day oral, day 0 (DSS last day), score 0-3, mean ± SD", "result": "1.2 ± 0.4"},
      {"measurement": "Body weight", "setting": "DSS + 10 mg/kg/day oral, day 3, mean ± SD", "result": "14.9 ± 1.4", "unit": "g"},
      {"measurement": "Fecal scoring average value", "setting": "DSS + 10 mg/kg/day oral, day 3, score 0-3, mean ± SD", "result": "1.3 ± 0.5"},
      {"measurement": "Body weight", "setting": "DSS + 10 mg/kg/day oral, day 5, mean ± SD", "result": "15.9 ± 1.9", "unit": "g"},
      {"measurement": "Fecal scoring average value", "setting": "DSS + 10 mg/kg/day oral, day 5, score 0-3, mean ± SD", "result": "1.7 ± 0.5"},
      {"measurement": "Body weight", "setting": "DSS + 10 mg/kg/day oral, day 8, mean ± SD", "result": "18.5 ± 2.1", "unit": "g"},
      {"measurement": "Fecal scoring average value", "setting": "DSS + 10 mg/kg/day oral, day 8, score 0-3, mean ± SD", "result": "0.0 ± 0.0"},
      {"measurement": "Body weight", "setting": "[2]", "result": "19.8 ± 1.7", "unit": "g"},
      {"measurement": "Colon length", "setting": "[2]", "result": "6.32 ± 0.16", "unit": "cm"},
      {"measurement": "Colon wet weight", "setting": "[2]", "result": "255.0 ± 12.4"},
      {"measurement": "Fecal scoring average value", "setting": "DSS + 10 mg/kg/day oral, day 10, score 0-3, mean ± SD", "result": "0.0 ± 0.0"},
      {"measurement": "Body weight", "setting": "DSS + 10 mg/kg/day oral, day −5 (DSS start, before test substance), mean ± SD", "result": "20.1 ± 0.9", "unit": "g"},
      {"measurement": "Fecal scoring average value", "setting": "DSS + 10 mg/kg/day oral, day −5 (before test substance), score 0-3, mean ± SD", "result": "0.0 ± 0.0"},
      {"measurement": "Body weight", "setting": "DSS + 100 mg/kg/day oral, day 0 (DSS last day), mean ± SD", "result": "19.0 ± 1.0", "unit": "g"},
      {"measurement": "Fecal scoring average value", "setting": "DSS + 100 mg/kg/day oral, day 0 (DSS last day), score 0-3, mean ± SD", "result": "1.0 ± 0.0"},
      {"measurement": "Body weight", "setting": "DSS + 100 mg/kg/day oral, day 3, mean ± SD", "result": "15.2 ± 1.8", "unit": "g"},
      {"measurement": "Fecal scoring average value", "setting": "DSS + 100 mg/kg/day oral, day 3, score 0-3, mean ± SD", "result": "1.7 ± 0.8"},
      {"measurement": "Body weight", "setting": "DSS + 100 mg/kg/day oral, day 5, mean ± SD", "result": "16.7 ± 2.2", "unit": "g"},
      {"measurement": "Fecal scoring average value", "setting": "DSS + 100 mg/kg/day oral, day 5, score 0-3, mean ± SD", "result": "1.0 ± 0.0"},
      {"measurement": "Body weight", "setting": "DSS + 100 mg/kg/day oral, day 8, mean ± SD", "result": "19.8 ± 0.9", "unit": "g"},
      {"measurement": "Fecal scoring average value", "setting": "DSS + 100 mg/kg/day oral, day 8, score 0-3, mean ± SD", "result": "0.0 ± 0.0"},
      {"measurement": "Colon wet weight", "setting": "DSS + 100 mg/kg/day oral, day 10", "result": 238.6},
      {"measurement": "Body weight", "setting": "[3]", "result": "21.0 ± 0.7", "unit": "g"},
      {"measurement": "Colon wet weight", "setting": "[3]", "result": "238.6 ± 11.3"},
      {"measurement": "Colon length", "setting": "DSS + 100 mg/kg/day oral, day 10, mean ± SD, 100 mg/kg/day", "result": "6.80 cm and 6.80 ± 0.12 cm"},
      {"measurement": "Fecal scoring average value", "setting": "DSS + 100 mg/kg/day oral, day 10, score 0-3, mean ± SD", "result": "0.0 ± 0.0"},
      {"measurement": "Body weight", "setting": "DSS + 100 mg/kg/day oral, day −5 (DSS start, before test substance), mean ± SD", "result": "20.1 ± 0.9", "unit": "g"},
      {"measurement": "Fecal scoring average value", "setting": "DSS + 100 mg/kg/day oral, day −5 (before test substance), score 0-3, mean ± SD", "result": "0.0 ± 0.0"},
      {"measurement": "Colon length compared with DSS group", "setting": "Group Nos. 3 to 5 (1, 10, 100 mg/kg/day) and Group No. 6 (50 mg/kg/day), in words", "result": "longer length of the colon than DSS group"},
      {"measurement": "Colon wet weight compared with DSS group", "setting": "all treated groups of Table 5, in words", "result": "suppressed weight increases compared with DSS group"}
    ]}
  ]
}
